Experimental data published in ChEMBL document CHEMBL5649166, “RIP3 induces apoptosis independent of pronecrotic kinase activity” (Mol Cell, 2014).

Experiments:
[1] = target: G protein-coupled receptor kinase 5 (Homo sapiens) (UniProt P34947); assay: Residual activity of human GRK5 using casein as substrate at 1 uM in presence of 32P-ATP by Hotspot assay relative to control
Homo sapiens = species: Homo sapiens; assay: Inhibition of human CDK7/cyclin H using myelin basic protein as substrate at 1 uM in presence of 32P-ATP by Hotspot assay relative to control; values are per cent of control
[2] = target: T1, Serine/threonine-protein kinase STK11 (Homo sapiens) (UniProt Q15831); assay: Inhibition of human LKB1 using LSNLYHQGKFLQTFCGSPLYRRR as substrate at 1 uM in presence of 32P-ATP by Hotspot assay relative to control; values are per cent of control
T1 sequence (whole entry): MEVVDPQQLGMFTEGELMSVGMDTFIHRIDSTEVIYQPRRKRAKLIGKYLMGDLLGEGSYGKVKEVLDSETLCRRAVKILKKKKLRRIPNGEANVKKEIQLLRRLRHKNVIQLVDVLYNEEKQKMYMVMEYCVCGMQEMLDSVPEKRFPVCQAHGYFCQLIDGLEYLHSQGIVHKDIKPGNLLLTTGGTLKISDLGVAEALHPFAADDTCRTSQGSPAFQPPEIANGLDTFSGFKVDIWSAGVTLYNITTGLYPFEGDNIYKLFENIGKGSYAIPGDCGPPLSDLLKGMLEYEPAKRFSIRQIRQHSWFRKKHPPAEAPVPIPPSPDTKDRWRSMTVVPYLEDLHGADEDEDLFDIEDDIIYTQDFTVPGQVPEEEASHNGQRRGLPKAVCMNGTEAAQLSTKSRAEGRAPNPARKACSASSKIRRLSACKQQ

[3] = target: Interleukin-1 receptor-associated kinase 1 (Homo sapiens) (UniProt P51617); assay: Inhibition of human IRAK1 using myelin basic protein as substrate at 1 uM in presence of 32P-ATP by Hotspot assay relative to control; values are per cent of control
[4] = target: T2, Ephrin type-B receptor 2 (Homo sapiens) (UniProt P29323); assay: Inhibition of human EPHB2 using poly[Glu:Tyr] (4:1) as substrate at 1 uM in presence of 32P-ATP by Hotspot assay relative to control; values are per cent of control
T2 sequence (whole entry): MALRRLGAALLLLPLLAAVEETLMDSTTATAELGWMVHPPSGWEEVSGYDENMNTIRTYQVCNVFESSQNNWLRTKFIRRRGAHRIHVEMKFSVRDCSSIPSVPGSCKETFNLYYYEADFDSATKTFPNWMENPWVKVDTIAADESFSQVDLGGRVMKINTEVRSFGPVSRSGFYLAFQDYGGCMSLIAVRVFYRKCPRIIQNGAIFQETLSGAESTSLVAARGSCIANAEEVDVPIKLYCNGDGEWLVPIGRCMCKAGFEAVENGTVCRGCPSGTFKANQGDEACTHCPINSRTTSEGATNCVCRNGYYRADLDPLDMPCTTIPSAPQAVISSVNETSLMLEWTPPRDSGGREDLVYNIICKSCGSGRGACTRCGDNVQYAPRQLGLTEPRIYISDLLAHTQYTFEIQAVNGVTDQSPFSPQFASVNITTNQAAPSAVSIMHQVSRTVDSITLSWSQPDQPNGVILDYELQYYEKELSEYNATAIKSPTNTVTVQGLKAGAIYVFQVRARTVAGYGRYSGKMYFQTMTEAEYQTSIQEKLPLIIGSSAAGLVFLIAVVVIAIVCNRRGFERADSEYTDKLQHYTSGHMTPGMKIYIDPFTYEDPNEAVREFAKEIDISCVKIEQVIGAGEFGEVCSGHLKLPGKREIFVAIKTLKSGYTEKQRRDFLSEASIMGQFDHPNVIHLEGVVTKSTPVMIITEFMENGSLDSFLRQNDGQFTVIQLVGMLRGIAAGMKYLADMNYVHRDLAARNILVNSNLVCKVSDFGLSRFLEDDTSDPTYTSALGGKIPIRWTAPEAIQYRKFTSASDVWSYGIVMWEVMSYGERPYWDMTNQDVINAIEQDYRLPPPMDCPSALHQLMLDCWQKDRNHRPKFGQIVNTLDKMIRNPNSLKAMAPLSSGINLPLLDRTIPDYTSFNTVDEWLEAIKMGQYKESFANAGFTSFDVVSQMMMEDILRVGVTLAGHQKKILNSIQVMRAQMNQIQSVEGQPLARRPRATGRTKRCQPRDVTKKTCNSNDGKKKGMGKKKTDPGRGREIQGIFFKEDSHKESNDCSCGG

[5] = target: Fibroblast growth factor receptor 2 (Homo sapiens) (UniProt P21802); assay: Inhibition of human FGFR2 using poly[Glu:Tyr] (4:1) as substrate at 1 uM in presence of 32P-ATP by Hotspot assay relative to control; values are per cent of control
[6] = target: Tyrosine-protein kinase ABL1 (Homo sapiens) (UniProt P00519); assay: Inhibition of human ABL1 using EAIYAAPFAKKK as substrate at 1 uM in presence of 32P-ATP by Hotspot assay relative to control; values are per cent of control
[7] = target: T3, Tyrosine-protein kinase Tec (Homo sapiens) (UniProt P42680); assay: Inhibition of human TEC using poly[Glu:Tyr] (4:1) as substrate at 1 uM in presence of 32P-ATP by Hotspot assay relative to control; values are per cent of control
T3 sequence (whole entry): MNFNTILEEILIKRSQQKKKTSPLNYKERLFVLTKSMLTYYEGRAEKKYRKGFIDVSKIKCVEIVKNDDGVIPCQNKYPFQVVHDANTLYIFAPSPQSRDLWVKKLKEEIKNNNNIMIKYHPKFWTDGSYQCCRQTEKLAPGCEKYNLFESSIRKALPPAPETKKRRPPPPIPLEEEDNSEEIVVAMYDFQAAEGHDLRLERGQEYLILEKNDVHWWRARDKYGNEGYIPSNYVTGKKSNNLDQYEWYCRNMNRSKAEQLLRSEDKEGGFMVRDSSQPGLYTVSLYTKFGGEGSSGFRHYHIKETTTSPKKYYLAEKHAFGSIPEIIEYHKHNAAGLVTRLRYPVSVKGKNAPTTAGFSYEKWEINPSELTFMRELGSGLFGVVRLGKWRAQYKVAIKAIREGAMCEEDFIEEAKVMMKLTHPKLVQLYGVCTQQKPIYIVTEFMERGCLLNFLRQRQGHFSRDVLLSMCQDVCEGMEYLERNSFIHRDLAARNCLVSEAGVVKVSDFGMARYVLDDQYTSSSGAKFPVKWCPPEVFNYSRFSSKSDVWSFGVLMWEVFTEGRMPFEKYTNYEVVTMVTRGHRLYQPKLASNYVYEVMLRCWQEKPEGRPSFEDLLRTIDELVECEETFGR

Chain of Interleukin-1 receptor-associated kinase 1 (Homo sapiens) (P51617 whole entry, looked up): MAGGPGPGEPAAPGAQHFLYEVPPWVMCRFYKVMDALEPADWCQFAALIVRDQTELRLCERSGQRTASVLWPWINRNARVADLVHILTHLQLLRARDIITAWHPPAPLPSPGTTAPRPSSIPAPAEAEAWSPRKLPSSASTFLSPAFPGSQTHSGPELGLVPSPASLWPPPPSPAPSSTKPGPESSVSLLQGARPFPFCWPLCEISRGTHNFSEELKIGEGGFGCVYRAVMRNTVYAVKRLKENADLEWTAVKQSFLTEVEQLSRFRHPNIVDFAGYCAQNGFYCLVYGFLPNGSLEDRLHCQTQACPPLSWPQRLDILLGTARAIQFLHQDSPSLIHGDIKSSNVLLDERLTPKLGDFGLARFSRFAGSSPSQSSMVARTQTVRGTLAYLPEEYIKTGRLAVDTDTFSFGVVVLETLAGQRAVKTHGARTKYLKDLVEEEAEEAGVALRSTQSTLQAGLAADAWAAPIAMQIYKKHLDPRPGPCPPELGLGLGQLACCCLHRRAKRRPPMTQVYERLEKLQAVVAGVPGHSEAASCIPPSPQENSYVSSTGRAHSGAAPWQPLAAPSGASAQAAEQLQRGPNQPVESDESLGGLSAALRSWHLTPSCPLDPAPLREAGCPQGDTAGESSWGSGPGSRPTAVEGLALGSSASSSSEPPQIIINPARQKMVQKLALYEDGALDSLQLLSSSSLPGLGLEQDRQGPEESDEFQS
Chain of G protein-coupled receptor kinase 5 (Homo sapiens) (P34947 whole entry, looked up): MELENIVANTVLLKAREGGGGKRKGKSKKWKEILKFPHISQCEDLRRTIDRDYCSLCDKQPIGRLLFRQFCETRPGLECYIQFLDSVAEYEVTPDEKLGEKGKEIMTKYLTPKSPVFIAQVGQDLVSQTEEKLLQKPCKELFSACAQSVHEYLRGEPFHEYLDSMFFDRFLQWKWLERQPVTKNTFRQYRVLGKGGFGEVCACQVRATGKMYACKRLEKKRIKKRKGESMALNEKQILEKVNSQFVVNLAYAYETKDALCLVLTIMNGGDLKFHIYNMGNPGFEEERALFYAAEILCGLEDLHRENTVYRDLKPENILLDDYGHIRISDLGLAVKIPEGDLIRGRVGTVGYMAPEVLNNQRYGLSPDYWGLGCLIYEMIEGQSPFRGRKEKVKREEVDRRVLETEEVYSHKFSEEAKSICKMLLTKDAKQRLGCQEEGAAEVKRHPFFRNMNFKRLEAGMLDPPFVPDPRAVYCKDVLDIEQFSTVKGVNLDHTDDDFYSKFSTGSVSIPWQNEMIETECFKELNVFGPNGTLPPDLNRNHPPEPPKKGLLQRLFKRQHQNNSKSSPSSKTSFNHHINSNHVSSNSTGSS
Chain of Fibroblast growth factor receptor 2 (Homo sapiens) (P21802 22-821 limits assumed): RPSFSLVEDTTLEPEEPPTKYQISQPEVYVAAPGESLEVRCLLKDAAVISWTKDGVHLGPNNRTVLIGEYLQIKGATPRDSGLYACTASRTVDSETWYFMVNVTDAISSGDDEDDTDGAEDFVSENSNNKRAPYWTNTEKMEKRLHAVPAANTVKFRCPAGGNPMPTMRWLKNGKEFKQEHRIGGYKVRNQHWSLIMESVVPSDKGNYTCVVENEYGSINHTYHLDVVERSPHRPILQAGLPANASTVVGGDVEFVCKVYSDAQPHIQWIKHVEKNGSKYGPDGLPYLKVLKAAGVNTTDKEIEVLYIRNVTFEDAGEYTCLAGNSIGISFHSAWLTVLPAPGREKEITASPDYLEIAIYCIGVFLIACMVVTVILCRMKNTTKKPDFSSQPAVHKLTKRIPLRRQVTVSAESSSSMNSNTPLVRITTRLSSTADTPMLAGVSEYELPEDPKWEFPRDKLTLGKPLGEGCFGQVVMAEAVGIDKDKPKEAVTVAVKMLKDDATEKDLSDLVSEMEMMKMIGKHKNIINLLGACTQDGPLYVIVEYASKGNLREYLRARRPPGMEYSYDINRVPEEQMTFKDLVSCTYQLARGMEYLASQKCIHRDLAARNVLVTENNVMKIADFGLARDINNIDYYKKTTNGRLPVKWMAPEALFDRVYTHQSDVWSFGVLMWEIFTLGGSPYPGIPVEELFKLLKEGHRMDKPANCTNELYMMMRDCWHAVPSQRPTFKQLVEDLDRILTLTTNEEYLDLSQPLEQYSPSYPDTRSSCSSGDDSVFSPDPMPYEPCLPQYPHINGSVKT
Chain of Tyrosine-protein kinase ABL1 (Homo sapiens) (P00519 whole entry): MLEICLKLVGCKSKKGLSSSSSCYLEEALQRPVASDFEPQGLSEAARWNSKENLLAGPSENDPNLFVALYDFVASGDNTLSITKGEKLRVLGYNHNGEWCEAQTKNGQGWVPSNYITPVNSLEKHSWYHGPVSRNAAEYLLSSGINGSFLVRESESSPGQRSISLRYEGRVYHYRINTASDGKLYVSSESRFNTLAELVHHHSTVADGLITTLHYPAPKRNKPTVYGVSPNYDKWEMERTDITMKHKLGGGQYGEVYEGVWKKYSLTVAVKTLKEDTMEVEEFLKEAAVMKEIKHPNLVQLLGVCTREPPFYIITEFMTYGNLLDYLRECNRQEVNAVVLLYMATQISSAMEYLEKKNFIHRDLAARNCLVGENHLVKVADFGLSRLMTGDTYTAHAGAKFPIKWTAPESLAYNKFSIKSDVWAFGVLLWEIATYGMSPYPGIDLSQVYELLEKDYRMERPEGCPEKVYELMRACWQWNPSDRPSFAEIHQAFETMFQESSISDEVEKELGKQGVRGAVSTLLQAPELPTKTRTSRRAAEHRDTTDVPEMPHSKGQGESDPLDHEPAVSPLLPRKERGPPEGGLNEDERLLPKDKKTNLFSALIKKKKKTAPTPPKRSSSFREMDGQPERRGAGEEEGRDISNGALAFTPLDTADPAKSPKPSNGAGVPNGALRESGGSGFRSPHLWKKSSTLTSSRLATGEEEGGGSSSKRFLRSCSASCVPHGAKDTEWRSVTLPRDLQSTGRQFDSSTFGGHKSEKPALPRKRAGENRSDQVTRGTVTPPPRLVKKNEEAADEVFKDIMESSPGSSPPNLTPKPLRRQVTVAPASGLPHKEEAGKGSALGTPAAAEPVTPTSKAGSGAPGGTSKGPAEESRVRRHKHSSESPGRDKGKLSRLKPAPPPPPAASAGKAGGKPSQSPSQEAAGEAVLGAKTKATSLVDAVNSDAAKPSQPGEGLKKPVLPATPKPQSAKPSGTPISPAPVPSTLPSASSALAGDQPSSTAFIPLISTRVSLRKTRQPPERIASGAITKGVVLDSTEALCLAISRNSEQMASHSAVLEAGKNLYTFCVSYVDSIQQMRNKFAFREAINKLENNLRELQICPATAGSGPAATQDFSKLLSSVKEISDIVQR

SMILES | residual activity [1] [%] | residual activity (Homo sapiens) [%] | residual activity [2] [%] | residual activity [3] [%] | residual activity [4] [%] | residual activity [5] [%] | residual activity [6] [%] | residual activity [7] [%]
Cc1cc(-c2cnc(N)c3c(-c4ccc5scnc5c4)csc23)n(C)n1 | 96.5 | 94.2 | 96.8 | 90 | 31 | 61.7 | 6.1 | 89.7
CC(C)S(=O)(=O)c1ccc2nccc(Nc3ccc4scnc4c3)c2c1 | 97.4 | 97.7 | 59 | 102 | 78.7 | 73.7 | 25.8 | 99.8
CNC(=O)c1ccc2c(c1)ncn2-c1ccc(CC(=O)OC(C)(C)C)cc1 | 94.7 | 96.2 | 99 | 78.6 | 95 | 66.7 | 92.7 | 93.1
